This is an account of results in paper PMC4822800, “Modifications of the 7-Hydroxyl Group of the Transthyretin Ligand Luteolin Provide Mechanistic Insights into Its Binding Properties and High Plasma Specificity” (PLoS ONE, 2016).

Each structure is given as a SMILES string. Read-outs that look alike come from different tables or passages of the source.

One series deals with T1, TTR in human plasma (Homo sapiens, UniProt P02766).
T1 construct: Human plasma from a healthy donor; from tissue; host or cells: human plasma (healthy donor)
Nature of the series: Urea-mediated denaturation gel-shift assay of TTR stabilization in human plasma (western blot of monomers). Format: biochemical. The conditions noted are these: for IC50: 4 M urea, 18 h, 20°C, densitometry of the monomeric band, read-out: IC50 (half maximal inhibitory concentration of TTR dissociation into monomers); for stoichiometric excess relative to TTR in human plasma to achieve the same stabilizing effect as luteolin: TTR assumed 5 μM. The method, then:
We have recently developed an assay in which the relative stability as a function of drug concentration can be evaluated in complex solutions [21]. TTR is found within the human plasma, and it is thus of interest to analyze drug efficacy in TTR’s natural environment. The analysis was performed as described previously with some modifications. Human plasma from a healthy donor was centrifuged at 20,000 × g for 10 min. The plasma was filtered using a 0.45 μm syringe filter (Filtropur S, Nümbrecht, Germany). A solution of 1 M sodium phosphate buffer at pH 7.0 was added to a final concentration of 40 mM. […] The reactions were incubated for 2 h at 20°C. Denaturation was initiated by addition of 4 M urea, 40 mM sodium phosphate buffer pH 7.4, and 150 mM NaCl. The samples were incubated for 18 h at 20°C followed by separation by gel electrophoresis using tricine-based SDS-PAGE with 0.025% SDS in the running buffer and 0.2% SDS in the loading buffer. […] Gel electrophoresis was followed by western blotting using rabbit anti-TTR antibody (anti-prealbumin, DAKO, Denmark) followed by a horseradish peroxidase-labeled antibody (anti-rabbit HRP, GE Healthcare, Sweden). Blocking of nonspecific binding on the membrane and incubation of the antibodies were performed in 5% fat-free powdered milk containing 0.3% Tween-20. All washing steps were performed in 40 mM Tris, 150 mM NaCl, and 0.3% Tween-20. Bound antibodies were visualized on photographic film using enhanced chemiluminescence (ECL-prime, GE Healthcare, UK). […] The presence of monomers on the photographic film was quantified through a densitometric analysis using the ImageJ 1.48 software (National Institutes of Health, […], US), which also ensured that all analyses were performed within a linear range. The plasma concentration of TTR is approximately 5 μM [38], and this implies that a drug must be present at ≥5 μM to work effectively as a stabilizer. Here we used a recently developed urea-mediated denaturation assay to determine the drug concentration needed in plasma to obtain the half maximal inhibitory concentration (IC50). In the experiment, the dissociation of TTR into monomers is monitored by the appearance of a monomeric band on a western blot (Fig 8). The fraction of denaturation was quantified by densitometric analysis using ImageJ 1.48 software. […] Fig 8 Determination of IC50 for luteolin, 7-Cl-Lut and 7-MeO-Lut in human plasma. The drug’s ability to selectively stabilize TTR in plasma was evaluated using a urea denaturation assay. The dissociation of the TTR tetramer is indicated by the presence of a monomeric TTR band on a western blot. (A) Gel-shift assay of various concentrations of luteolin in human plasma. […] (C) Gel-shift assay of various concentrations of 7-MeO-Lut in human plasma.
In general terms: In western blotting, separated proteins are transferred to a membrane and probed.

The target in series [1] is T2, TTR (Homo sapiens, UniProt P02766).
T2 construct: Expression of TTR was performed as described previously; made in house; host or cells: Escherichia coli BL21
Nature of the series: Microscale thermophoresis (MST) binding to NT-647-labelled TTR. The conditions noted are these: 300 nM NT-647-labelled TTR, PBS, 5% DMSO, mean ± S.E.M. of three measurements, read-out: dissociation constant (Kd). On the procedure: We used MST to measure the affinity between the different ligands and TTR. TTR was labelled with the Monolith NT protein labelling kit (Nanotemper Technologies, Germany) using the sulfhydryl-reactive red fluorescent dye NT-647 Maleimide according to the manufacturer’s instructions. Labelled TTR was kept at a constant concentration of 300 nM, and luteolin, 7-Cl-Lut and 7-MeO-Lut were serially diluted yielding 13, 16 and 12 respectively different concentrations ranging from 0.24 nM to 1 μM for luteolin, 0.24 nM to 8 μM for 7-Cl-Lut, and 0.61 nM to 1.25 μM for 7-MeO-Lut. Experiments were carried out in phosphate-buffered saline and 5% DMSO with a Monolith NT.115 instrument using standard-treated capillaries (Nanotemper Technologies, Germany). Fluorescence was detected for 5 s, and the laser was switched on for 30 s followed by fluorescence detection for another 5 s. The delay time between runs was set to 25 s. The LED power and the MST were set to 80% for all drugs. Kd values were determined using NTanalysis software (NanoTemper Technologies, Germany) by fitting the data representing the mean ± S.E.M. from three independent measurements to the Kd fit model.
In order to obtain binding affinities between the drugs and TTR, we employed microscale thermophoresis (MST), which is a technique based on the directed movement of molecules in a temperature gradient. This phenomenon depends on a variety of molecular properties such as size, charge, hydration shell, and conformation. The dissociation constant (Kd) for luteolin was determined to be 150 ± 70 nM, which is in accordance with the previously published value of 100 nM determined by isothermal titration calorimetry (Fig 3A).
Fig 3 Binding of luteolin, 7-Cl-Lut and 7-MeO-Lut to NT-647–labeled TTR. Various concentrations of the compounds were titrated against 300 nM of NT-647–labeled TTR. Kd values were determined by averaging three independent experiments (mean ± S.E.M.) using the NT analysis software. The thermophoresis signal was plotted against luteolin (A), 7-Cl-Lut (B) and 7-MeO-Lut (C) concentrations.
A general note: MST reads how a fluorescent partner responds to local heating, with and without ligand.

Series [2] can be described thus: Glucuronidation / depletion kinetics in human liver microsomes (UHPLC). Format: in vitro ADME. The conditions noted are these: for half-life at 10 μM: female, pooled human liver microsomes, alamethicin-activated, 10 μM compound, 0.1 mg/mL human liver microsomes, 5 mM UDPGA, 37°C, one-phase exponential decay, read-out: half-life (t1/2); for metabolic stability relative to luteolin: human hepatic microsomes, glucuronidation by UGT enzymes. The method, then:
Pooled female human liver microsomes (n = 10) were purchased from XenoTech (Lenexa, US) and stored at −80°C and rapidly thawed before use. The microsomes, 0.1 mg/mL, were activated by incubation with alamethicin (Santa Cruz Biotechnology, US), 50 μg/mL microsomal protein, in 0.1 M sodium phosphate buffer using a VWR Mini Shaker (Radnor, US) at 37°C and 550 rpm for 10 min. Luteolin, 7-Cl-Lut or 7-MeO-Lut was added to give a final concentration of 10 μM and 5% DMSO, and these were pre-incubated with the activated microsomes for 5 min at 37°C and shaking at 550 rpm. The reaction was initiated by addition of 5 mM uridine 5’-diphosphoglucuronic acid, (Santa Cruz Biotechnology, US). The incubation time ranged from 0 min to 5 h. The reactions were quenched by flash freezing and stored at −80°C. The microsomes were heat inactivated using a VWR UnoCycler (Radnor, US) for 5 min at 95°C. All experiments were repeated three times.
In order to calculate depletion kinetics, the percentage of the remaining drug was calculated by comparison with the initial quantity at 0 min. The half-life (t1/2) of luteolin, 7-Cl-Lut and 7-MeO-Lut was calculated using GraphPad Prism (GraphPad Software, Inc., US, version 5.0). Data were fitted to one-phase exponential decay: C=C0*exp(-K*t) (1) The half-life(t1/2)=0.693/K (2)
Microsome-treated samples were diluted in 50% DMSO. Analytical HPLC was performed using a Nexera UHPLC system (Shimadzu, US) connected to a diode array detector (SPP M20A). Samples were analyzed using a Nucleodur C18 HTec column (EC 150 × 4.6, 5 μm, Macherey-Nagel) with a flow rate of 1 mL/min. Aliquots of 20 μL of each sample were injected, and detection was performed at 345 nm. The mobile phase was composed of solvent A (H2O in 0.1% TFA) and solvent B (acetonitrile in 0.1% TFA). The binary gradient profile was as follows with solvent B as the reference: 0–2.5 min, 17% B; 2.5–7.5 min, 17–25% B; 7.5–15.5 min, 25–35% B; 15.5–20.5 min, 35–50% B; 20.5–25.5 min, 50–100% B; 25.5–30.5 min, 100% B; 30.5–31 min, 100–17% B; 31–35.5 min, 17% B. Before first injection, the column was equilibrated at 17% B for 5 min.
The metabolization of luteolin, 7-Cl-Lut and 7-MeO-Lut by the microsomes can be followed by the decrease in the substrate concentration over time. The data shown in Fig 7 were fitted to a single-component exponential decay model and the half-lives were determined using Eqs (1) and (2). Luteolin was metabolized about 3-fold faster than 7-Cl-Lut with half-lives of 16 ± 1 min and 52 ± 7 min, respectively.
Fig 7 Depletion profile of 10 μM luteolin (triangle), 7-Cl-Lut (square) and 7-MeO-Lut (diamond) after incubation in the presence of 0.1 mg/mL human liver microsomes for various times. Each time point represents the average of three independent samples (mean ± SD) acquired through plotting the integral of the corresponding peaks from the UHPLC analysis.

Series [3] deals with T2, TTR. Set-up: method as in ref 49 = [49]; PMID 22842046; doi:10.1016/j.jsb.2012.07.008; 49 Trivella DB , dos Reis CV , Lima LM , Foguel D , Polikarpov I ( 2012 ) Flavonoid interactions with human transthyretin: combined structural and thermodynamic analysis . J Struct Biol 180 : 143 – 15. The settings on record: binding to TTR; cited from earlier work.
Series [4] has as its target T2, TTR. Also noted: method as in ref 37 = [37]; PMID 22842046; doi:10.1016/j.jsb.2012.07.008; 37 Trivella DBB , dos Reis CV , Lima LMTR , Foguel D , Polikarpov I ( 2012 ) Flavonoid interactions with human transthyretin: Combined structural and thermodynamic analysis . Journal of Structural Bio. The settings on record: isothermal titration calorimetry; read-out: Kd, previously published value; cited from earlier work. (ITC needs no label: the signal is the heat of the interaction.)

On the set-up of series [5]: method as in PMID 23556338. The conditions noted are these: in vivo persistence against metabolic activity; cited from earlier work.

The term Kd denotes the constant that tells how readily two partners part at equilibrium. For the compound `O=c1cc(-c2ccc(O)c(O)c2)oc2cc(Cl)cc(O)c12` [7-Cl-Lut, 2-(3,4-dihydroxyphenyl)-5-hydroxy-7-chloro-4H-1-benzopyran-4-one], on TTR in human plasma, the IC50 is about 65000 nM and the “stoichiometric excess relative to TTR in human plasma to achieve the same stabilizing effect as luteolin” value is listed as 13 fold. Also, at TTR [1], the Kd is 620 ± 150 nM. In series [2], the half-life at 10 μM was determined as 52 ± 7 min and the “metabolic stability relative to luteolin” value is listed as “approximately 3 fold”.
In the same order, the values of `COc1cc(O)c2c(=O)cc(-c3ccc(O)c(O)c3)oc2c1` [7-MeO-Lut, 2-(3,4-dihydroxyphenyl)-5-hydroxy-7-methoxy-4H-1-benzopyran-4-one] are about 105000 nM, 21 fold, 390 ± 40 nM, 36 ± 8 min and “doubled”.
On to `O=c1cc(-c2ccc(O)cc2)oc2cc(O)cc(O)c12` [apigenin], for which the “times lower affinity compared to luteolin” value on TTR [3] is listed as 5 times.
`O=c1cc(-c2ccccc2)oc2cc(O)cc(O)c12` [chrysin]: on TTR [3], the “times lower affinity compared to luteolin” value was 17 times.
Regarding `O=c1cc(-c2ccc(O)c(O)c2)oc2cc(O)cc(O)c12` [luteolin], the Kd was 100 nM on TTR [4] and 150 ± 70 nM on TTR [1]. Further, the IC50 on TTR in human plasma was about 5000 nM. Besides, the half-life result in series [5] is “around 8 hours”. In series [2], the half-life at 10 μM was determined as 16 ± 1 min.
